Values of other authors in publication PMC7496964 (Chemistry (Weinheim an Der Bergstrasse, Germany), 2020).

Target: human langerin ECD (Homo sapiens, UniProt Q9UJ71)
Sequence (Q9UJ71 65-328 limits assumed): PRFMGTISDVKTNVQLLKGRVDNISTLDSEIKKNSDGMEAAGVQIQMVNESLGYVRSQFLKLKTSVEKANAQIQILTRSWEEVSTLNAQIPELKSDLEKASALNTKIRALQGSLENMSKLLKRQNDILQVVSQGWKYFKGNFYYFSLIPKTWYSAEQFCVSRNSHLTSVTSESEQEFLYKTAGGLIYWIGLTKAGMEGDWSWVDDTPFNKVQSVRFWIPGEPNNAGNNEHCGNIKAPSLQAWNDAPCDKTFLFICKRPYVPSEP

1-α-azido B-trisaccharide [compound 10]
Langerin affinity (in words), literature: weak affinity
